This passage reports IC50 or EC50 (agonist or antagonist mode not specified) results from US12110293B2, “Substituted triazolo quinoxaline derivatives” (GRÜNENTHAL GMBH, priority 2018, dated 2024).

In the test the target is T1, glucocorticoid receptor (Homo sapiens, UniProt P04150).
T1 construct: expressed in transfected cells
T1 sequence (P04150 524-758 limits assumed): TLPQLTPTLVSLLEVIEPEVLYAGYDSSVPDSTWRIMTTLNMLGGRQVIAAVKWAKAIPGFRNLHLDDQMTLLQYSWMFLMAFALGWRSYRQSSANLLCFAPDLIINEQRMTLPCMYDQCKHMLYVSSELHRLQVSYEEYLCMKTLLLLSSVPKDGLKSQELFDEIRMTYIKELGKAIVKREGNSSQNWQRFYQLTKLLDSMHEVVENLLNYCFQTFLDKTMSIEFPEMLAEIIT
Briefly: Agonistic mode of action on the glucocorticoid receptor (CHO-Gal4/GR luciferase reporter cell line). Format: cell-based. Particulars: range class observed in the agonistic assay or the antagonistic assay (CHO-Gal4/GR reporter cells); table does not say which mode applies per example. In short, it runs like this: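 Agonism measured as dose-dependent luciferase luminescence (FLIPR Tetra) from a GAL4-UAS reporter driven by GAL4 DBD fused to GR ligand-binding domain in stable CHO cells. Eight half-log doses, 10 μM to 0.003 μM final in 0.5% DMSO, quadruplicate, on cells seeded 24 h earlier at 5000/well; EC50 derived.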
(In general: Reporter assays use an easily measured gene product as a stand-in for the process of interest.)
In the case of `Cc1nnc2n1-c1c(cc(F)c(-c3cc(F)cc4c3cnn4S(C)(=O)=O)c1F)NC2(C)C` [Example 276, 7,9-Difluoro-8-(6-fluoro-1-methylsulfonyl-1H-indazol-4-yl)-1,4,4-trimethyl-5H-[1,2,4]triazolo [4,3-a]quinoxaline], the IC50 or EC50 (agonist or antagonist mode not specified) was in the range of 0.1 to 1 µM. As for `Cc1c(-c2cc(F)cc3c2cnn3S(C)(=O)=O)c(F)cc2c1-n1c(C)nnc1C(C)(C)N2` [Example 279, 7-Fluoro-8-(6-fluoro-1-methylsulfonyl-1H-indazol-4-yl)-1,4,4,9-tetramethyl-5H-[1,2,4]triazolo[4,3-a]quinoxaline], the IC50 or EC50 (agonist or antagonist mode not specified) is less than 0.1 µM. As to `COCCn1ccc2c(-c3c(Cl)cc4c(c3F)-n3c(C)nnc3C(C)(C)N4)cccc21` [Example 280, 7-Chloro-9-fluoro-8-[1-(2-methoxy-ethyl)-1H-indol-4-yl]-1,4,4-trimethyl-5H-[1,2,4]triazolo[4,3-a]quinoxaline], the IC50 or EC50 (agonist or antagonist mode not specified) is 1 to 15 µM.

As to `COCCn1ccc2c(-c3c(F)cc4c(c3OC)-n3c(C)nnc3C(C)(C)N4)cccc21` [Example 281, 7-Fluoro-9-methoxy-8-[1-(2-methoxy-ethyl)-1H-indol-4-yl]-1,4,4-trimethyl-5H-[1,2,4]triazolo[4,3-a]quinoxaline], the IC50 or EC50 (agonist or antagonist mode not specified) was 0.1 to 1 µM. To `Cc1c[nH]c2c(-c3c(OC(F)F)cc4c(c3F)-n3c(C)nnc3C(C)(C)N4)cccc12` [Example 282, 7-(Difluoro-methoxy)-9-fluoro-1,4,4-trimethyl-8-(3-methyl-1H-indol-7-yl)-5H-[1,2,4]triazolo[4,3-a]quinoxaline] belongs 0.1 to 1 µM. To `Cc1nnc2n1-c1c(cc(Cl)c(-c3cccc4c3ccn4S(C)(=O)=O)c1F)NC2(C)C` [Example 284, 7-Chloro-9-fluoro-1,4,4-trimethyl-8-(1-methylsulfonyl-1H-indol-4-yl)-5H-[1,2,4]triazolo[4,3-a]quinoxaline] belongs 0.1 to 1 µM.

`Cc1nnc2n1-c1c(cc(Cl)c(-c3cccc4c3cnn4C)c1F)NC2(C)C` [Example 285, 7-Chloro-9-fluoro-1,4,4-trimethyl-8-(1-methyl-1H-indazol-4-yl)-5H-[1,2,4]triazolo[4,3-a]quinoxaline] registered an IC50 or EC50 (agonist or antagonist mode not specified) of 1 to 15 µM. Take `COc1c(-c2cccc3[nH]ccc23)c(F)cc2c1-n1c(C)nnc1C(C)(C)N2` [Example 286, 7-Fluoro-8-(1H-indol-4-yl)-9-methoxy-1,4,4-trimethyl-5H-[1,2,4]triazolo[4,3-a]quinoxaline]: the IC50 or EC50 (agonist or antagonist mode not specified) lay in the range of 0.1 to 1 µM. To `COCCn1ccc2c(-c3c(OC)cc4c(c3F)-n3c(C)nnc3C(C)(C)N4)cccc21` [Example 288, 9-Fluoro-7-methoxy-8-[1-(2-methoxy-ethyl)-1H-indol-4-yl]-1,4,4-trimethyl-5H-[1,2,4]triazolo[4,3-a]quinoxaline] belongs 1 to 15 µM. To `COCCn1c(C(F)(F)F)cc2c(-c3c(F)cc4c(c3F)-n3c(C)nnc3C(C)(C)N4)cccc21` [Example 289, 7,9-Difluoro-8-[1-(2-methoxy-ethyl)-2-(trifluoromethyl)-1H-indol-4-yl]-1,4,4-trimethyl-5H-[1,2,4]triazolo[4,3-a]quinoxaline] belongs 1 to 15 µM. Molecule `Cc1c[nH]c2c(-c3c(Cl)cc4c(c3F)-n3c(C)nnc3C(C)(C)N4)cc(F)cc12` [Example 290, 7-Chloro-9-fluoro-8-(5-fluoro-3-methyl-1H-indol-7-yl)-1,4,4-trimethyl-5H-[1,2,4]triazolo[4,3-a]quinoxaline] yielded an IC50 or EC50 (agonist or antagonist mode not specified) of 0.1 to 1 µM. For `COCCn1ccc2c(-c3c(F)cc4c(c3C(F)F)-n3c(C)nnc3C(C)(C)N4)cccc21` [Example 292, 9-(Difluoro-methyl)-7-fluoro-8-[1-(2-methoxy-ethyl)-1H-indol-4-yl]-1,4,4-trimethyl-5H-[1,2,4]triazolo[4,3-a]quinoxaline], the IC50 or EC50 (agonist or antagonist mode not specified) lay within 0.1 to 1 µM. The same measure for `Cc1nnc2n1-c1c(cc(F)c(-c3cccc4c3cnn4C)c1C(F)F)NC2(C)C` [Example 294, 9-(Difluoro-methyl)-7-fluoro-1,4,4-trimethyl-8-(1-methyl-1H-indazol-4-yl)-5H-[1,2,4]triazolo[4,3-a]quinoxaline]: less than 0.1 µM. `COCCn1ccc2c(-c3c(C(F)F)cc4c(c3F)-n3c(C)nnc3C(C)(C)N4)cccc21` [Example 295, 7-(Difluoro-methyl)-9-fluoro-8-[1-(2-methoxy-ethyl)-1H-indol-4-yl]-1,4,4-trimethyl-5H-[1,2,4]triazolo[4,3-a]quinoxaline] had an IC50 or EC50 (agonist or antagonist mode not specified) of 1 to 15 µM.

In turn, `Cc1c[nH]c2c(-c3c(C(F)F)cc4c(c3F)-n3c(C)nnc3C(C)(C)N4)cc(F)cc12` [Example 296, 7-(Difluoro-methyl)-9-fluoro-8-(5-fluoro-3-methyl-1H-indol-7-yl)-1,4,4-trimethyl-5H-[1,2,4]triazolo[4,3-a]quinoxaline] came in with an IC50 or EC50 (agonist or antagonist mode not specified) of 0.1 to 1 µM.

In turn, `Cc1nnc2n1-c1c(cc(OC(F)F)c(-c3cccc4[nH]ccc34)c1F)NC2(C)C` [Example 297, 7-(Difluoro-methoxy)-9-fluoro-8-(1H-indol-4-yl)-1,4,4-trimethyl-5H-[1,2,4]triazolo[4,3-a]quinoxaline] registered an IC50 or EC50 (agonist or antagonist mode not specified) of 1 to 15 µM. To `Cc1nnc2n1-c1c(cc(C(F)F)c(-c3cc(F)cc4c3ccn4S(C)(=O)=O)c1F)NC2(C)C` [Example 298, 7-(Difluoro-methyl)-9-fluoro-8-(6-fluoro-1-methylsulfonyl-1H-indol-4-yl)-1,4,4-trimethyl-5H-[1,2,4]triazolo[4,3-a]quinoxaline] belongs 1 to 15 µM; to `CCc1nnc2n1-c1c(cc(F)c(-c3cccc4c3ccn4CCOC)c1C)NC2(C)C` [Example 299, 1-Ethyl-7-fluoro-8-[1-(2-methoxy-ethyl)-1H-indol-4-yl]-4,4,9-trimethyl-5H-[1,2,4]triazolo[4,3-a]quinoxaline], 1 to 15 µM. Molecule `Cc1c[nH]c2c(-c3c(F)cc4c(c3C(F)F)-n3c(C)nnc3C(C)(C)N4)cc(F)cc12` [Example 302, 9-(Difluoro-methyl)-7-fluoro-8-(5-fluoro-3-methyl-1H-indol-7-yl)-1,4,4-trimethyl-5H-[1,2,4]triazolo[4,3-a]quinoxaline] had an IC50 or EC50 (agonist or antagonist mode not specified) of less than 0.1 µM. In turn, `Cc1c[nH]c2c(-c3c(C(F)F)cc4c(c3F)-n3c(C)nnc3C(C)(C)N4)cccc12` [Example 306, 7-(Difluoro-methyl)-9-fluoro-1,4,4-trimethyl-8-(3-methyl-1H-indol-7-yl)-5H-[1,2,4]triazolo[4,3-a]quinoxaline] had an IC50 or EC50 (agonist or antagonist mode not specified) of 0.1 to 1 µM. The same measure for `Cc1cc2c(c(C)c1-c1cccc3c1ccn3S(C)(=O)=O)-n1c(C)nnc1C(C)(C)N2` [Example 309, 1,4,4,7,9-Pentamethyl-8-(1-methylsulfonyl-1H-indol-4-yl)-5H-[1,2,4]triazolo[4,3-a]quinoxaline]: less than 0.1 µM; for `COc1cc2c(c(C(F)(F)F)c1-c1cccc3c1ccn3S(C)(=O)=O)-n1c(C)nnc1C(C)(C)N2` [Example 310, 7-Methoxy-1,4,4-trimethyl-8-(1-methylsulfonyl-1H-indol-4-yl)-9-(trifluoromethyl)-5H-[1,2,4]triazolo[4,3-a]quinoxaline]: 0.1 to 1 µM.
